Test system: elastase
Experiment: Wound elastase activity: fibronectin zymography, immunoblotting and elastase substrate degradation
Assay type: in vivo, human
Settings: day 7 wounds compared to placebo
Method: Proteases responsible for fibronectin degradation were identified by zymography using fibronectin-containing acrylamide gels (12% acrylamide and 0.33 mg/ml fibronectin, Central Blood Products Ltd). Tissue samples were lyophilized and homogenized using a ground glass homogenizer containing 0.5 ml buffer (100 mM Tris/HCl, 6M Urea, 15 mM CaCl2, 0.25% Triton-X100, pH 7.4). After centrifugation at 11,000 rpm for 10 min at 4° C. samples (20 μg dry wt) were incubated for 30 min at 37° C. with 2× Laemmli sample buffer and subjected to electrophoresis under non-reducing conditions (Laemmli, 1970). After electrophoresis, the gels were washed twice with 2.5% Triton-X100 for 1 hr to remove SDS. The gels were briefly washed with double distilled water and incubated for 18 h at 37° C. in developing buffer containing 50 mM Tris/HCl, 150 mM NaCl and 5 mM CaCl2, pH 7.4. At the end of incubation the gels were stained with 0.5% Coomassie brilliant blue and destained. […]
Tissue samples (20 μg dry wt) and human neutrophil elastase (0.01-0.3 μg/ml) were incubated for up to 1 h at 37° C. in 200 μl of 0.1M Hepes buffer, pH 7.5, containing 0.5M NaCl, 10% dimethylsulfoxide and 0.1 mM elastase substrate (methoxysuccinyl-ala-ala-pro-val-p-nitroanilide; Calibiochem Co;). Substrate degradation was determined by measuring OD410 (Dynatech MR5000). […] Results were expressed as ng/ml elastase activity/20 μg dry wt.

- elastase activity (synthetic elastase substrate degradation assay): significantly reduced
SMILES: C[C@]12CC[C@@H]3c4ccc(O)cc4CC[C@H]3[C@@H]1CC[C@@H]2O [Oestrogen]

Reference: patent US6696433B2, “Use of sex steroids function modulators to treat wounds and fibrotic disorders” (Renovo Limited, priority 1996, dated 2004)
